Biological target: Protein cereblon (Homo sapiens, UniProt Q96SW2)
Test: Compound Activity by Fluorescent Polarization Assay
Protocol: Compound activity was monitored in a fluorescence polarization (FP) homogeneous assay using 1-[5-({2-[2-(2-{[2-(2,6-dioxopiperidin-3-yl)-1,3-dioxo-2,3-dihydro-1H-isoindol-4-yl]oxy}acetamido)ethoxy]ethyl}carbamoyl)pentyl]-3,3-dimethyl-2-[(1E,3E)-5-[(2E)-1,3,3-trimethyl-5-sulfo-2,3-dihydro-1H-indol-2-ylidene]penta-1,3-dien-1-yl]-3H-indol-1-ium-5-sulfonate as a fluorescent probe. Unless otherwise stated, all reagents were purchased from Sigma Aldrich. Enzymatic reactions were conducted in Perkin-Elmer Black 384 well ProxiPlate Plus (catalogue no. 6008269) in 10 μL total volume. Full length wild-type cereblon CRBN (80.0 nM, 10 μL) was incubated in assay buffer containing 20 mM HEPES (pH 8.0), […], 0.5 mM TCEP and 0.05% Tween 20 in the presence or absence of compound (300 nL). Inhibitors were stored as 10 mM DMSO stocks in an inert environment (low humidity, dark, low oxygen, room temperature) using the Storage Pod System. Compounds and DMSO were dispensed using the Echo ESXX (Labcyte Inc. USA) to give concentrations from 300 to 0.937 or 3000 to 9.3 nM in a 12 data point curve. […] FP was measured after a period of 12 hours using a Pherastar plate reader (BMG Labtech, Germany) exciting at 590 nm and measuring the amount of parallel and perpendicular light at 675 nm. […]

Protein cereblon, sequence (Q96SW2 whole entry): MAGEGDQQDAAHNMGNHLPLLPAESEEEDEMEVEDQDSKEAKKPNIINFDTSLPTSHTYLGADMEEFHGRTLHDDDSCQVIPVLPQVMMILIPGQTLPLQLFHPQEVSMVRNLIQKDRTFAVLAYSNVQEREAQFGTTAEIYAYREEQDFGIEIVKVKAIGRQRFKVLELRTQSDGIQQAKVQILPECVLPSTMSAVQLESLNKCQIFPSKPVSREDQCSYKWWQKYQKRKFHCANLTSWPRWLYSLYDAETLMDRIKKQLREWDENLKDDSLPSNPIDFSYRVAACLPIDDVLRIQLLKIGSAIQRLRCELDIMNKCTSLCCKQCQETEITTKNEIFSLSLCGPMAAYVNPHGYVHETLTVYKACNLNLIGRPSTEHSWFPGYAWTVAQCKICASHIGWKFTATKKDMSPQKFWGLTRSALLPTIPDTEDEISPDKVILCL

IC50: > 1700 nM
SMILES: O=C1CCC(N2Cc3ccc(COC(=O)Nc4cc(Cl)cc(OC(F)(F)F)c4)cc3C2=O)C(=O)N1 (stereo unspecified) [US11912682, Compound 11]
